Reference: patent US8846699B2, “Quinazoline derivatives as a multiplex inhibitor and method for the preparation thereof” (Hanmi Pharm. Co., Ltd., priority 2005, dated 2014)
pIC50: −log10 of the molar value.

Columns and labels:
[1] = test system: skin cancer cell line, A431; experiment: Inhibitory effect on growth of cancer cell line A431, SRB; format: cell-based; settings: overexpressed EGFR1 (HER-1)
Method in brief: (§1)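 Growth inhibition was measured by sulforhodamine-B staining (absorbance 570 nm) of TCA-fixed cells after 72 h compound exposure at 37 °C, 5% CO2. Test concentrations ran from 10 μM in 10-fold steps to 10^−4, with DMSO below 1%, in 10% FBS DMEM.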

[2] = biological target: EGFR1 (HER-1) (Homo sapiens (Human), UniProt P00533); experiment: EGFR1 (HER-1) enzyme assay, fluorescence polarization; format: biochemical; settings: 100 μM ATP, poly(Glu, Tyr) substrate
[3] = test system: breast cancer cell line, SK-Br3; experiment: Inhibitory effect on growth of cancer cell line SK-Br3, SRB; format: cell-based; settings: overexpressed EGFR2 (HER-2)
Method in brief: as §1

[4] = test system: colon and rectal cancer cell line, SW-620; experiment: Inhibitory effect on growth of cancer cell line SW-620, SRB; format: cell-based; settings: not having overexpressed EGFR and EGFR2
Method in brief: as §1

[5] = test system: Human Umbilical Vein Endothelial Cell (HUVEC); experiment: Inhibitory effect on growth of human umbilical vein endothelial cell (HUVEC), MTS; format: cell-based; settings: 10 ng/ml VEGF, absorbance 490 nm
[6] = biological target: VEGFR2 (KDR) (Homo sapiens (Human), UniProt P35968); experiment: VEGFR2 (KDR) enzyme assay, fluorescence polarization; format: biochemical; settings: 5 μM ATP, poly(Glu, Tyr) substrate
Method in brief: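 Buffer: 20 mM HEPES pH 7.4 with 5 mM MgCl2, 2 mM MnCl2 and 50 μM Na3VO4. Compound (0.0001–10 μM) was premixed 10 min with VEGFR2 (200 ng/10 μl), then poly(Glu,Tyr) substrate (10 ng/ml) and 5 μM ATP were added for 1 h at room temperature. EDTA-quenched samples were read by FP after 30 min with antibody and tracer.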

Sequence of VEGFR2 (KDR) (P35968 20-1356): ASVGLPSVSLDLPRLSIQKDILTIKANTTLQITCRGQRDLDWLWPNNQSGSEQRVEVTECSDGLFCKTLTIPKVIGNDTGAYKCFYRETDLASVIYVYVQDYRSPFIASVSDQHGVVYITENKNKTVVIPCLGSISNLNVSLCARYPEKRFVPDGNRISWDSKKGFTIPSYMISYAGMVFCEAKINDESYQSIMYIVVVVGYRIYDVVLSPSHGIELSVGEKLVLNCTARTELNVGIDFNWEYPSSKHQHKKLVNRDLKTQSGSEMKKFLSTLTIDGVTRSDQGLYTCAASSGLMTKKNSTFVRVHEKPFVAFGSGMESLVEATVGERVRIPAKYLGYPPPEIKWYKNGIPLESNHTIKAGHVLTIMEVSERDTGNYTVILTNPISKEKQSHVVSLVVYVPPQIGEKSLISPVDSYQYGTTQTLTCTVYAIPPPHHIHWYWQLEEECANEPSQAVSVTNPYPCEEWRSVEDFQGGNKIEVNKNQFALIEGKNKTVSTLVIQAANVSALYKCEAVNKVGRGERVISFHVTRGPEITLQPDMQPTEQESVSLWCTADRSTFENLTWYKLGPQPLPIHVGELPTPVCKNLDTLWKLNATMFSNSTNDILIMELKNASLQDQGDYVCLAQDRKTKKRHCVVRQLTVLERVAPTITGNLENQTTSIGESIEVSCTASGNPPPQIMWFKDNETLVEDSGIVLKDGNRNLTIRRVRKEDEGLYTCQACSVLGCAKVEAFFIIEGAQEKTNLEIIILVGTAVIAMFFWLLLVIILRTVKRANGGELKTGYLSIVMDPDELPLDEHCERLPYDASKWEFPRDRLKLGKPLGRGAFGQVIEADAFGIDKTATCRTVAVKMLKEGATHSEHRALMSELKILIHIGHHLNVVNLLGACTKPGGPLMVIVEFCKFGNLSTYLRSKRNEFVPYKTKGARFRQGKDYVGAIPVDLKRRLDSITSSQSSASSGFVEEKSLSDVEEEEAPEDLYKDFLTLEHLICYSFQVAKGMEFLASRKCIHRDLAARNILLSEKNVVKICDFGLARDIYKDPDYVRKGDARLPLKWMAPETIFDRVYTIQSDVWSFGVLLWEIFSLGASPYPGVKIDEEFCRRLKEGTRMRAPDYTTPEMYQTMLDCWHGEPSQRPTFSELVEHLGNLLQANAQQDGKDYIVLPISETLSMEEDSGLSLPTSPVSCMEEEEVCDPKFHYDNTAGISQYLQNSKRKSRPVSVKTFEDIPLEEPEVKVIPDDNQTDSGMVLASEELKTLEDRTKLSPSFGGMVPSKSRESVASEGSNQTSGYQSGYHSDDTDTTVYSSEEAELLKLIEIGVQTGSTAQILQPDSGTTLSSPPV
Sequence of EGFR1 (HER-1) (P00533 25-1210): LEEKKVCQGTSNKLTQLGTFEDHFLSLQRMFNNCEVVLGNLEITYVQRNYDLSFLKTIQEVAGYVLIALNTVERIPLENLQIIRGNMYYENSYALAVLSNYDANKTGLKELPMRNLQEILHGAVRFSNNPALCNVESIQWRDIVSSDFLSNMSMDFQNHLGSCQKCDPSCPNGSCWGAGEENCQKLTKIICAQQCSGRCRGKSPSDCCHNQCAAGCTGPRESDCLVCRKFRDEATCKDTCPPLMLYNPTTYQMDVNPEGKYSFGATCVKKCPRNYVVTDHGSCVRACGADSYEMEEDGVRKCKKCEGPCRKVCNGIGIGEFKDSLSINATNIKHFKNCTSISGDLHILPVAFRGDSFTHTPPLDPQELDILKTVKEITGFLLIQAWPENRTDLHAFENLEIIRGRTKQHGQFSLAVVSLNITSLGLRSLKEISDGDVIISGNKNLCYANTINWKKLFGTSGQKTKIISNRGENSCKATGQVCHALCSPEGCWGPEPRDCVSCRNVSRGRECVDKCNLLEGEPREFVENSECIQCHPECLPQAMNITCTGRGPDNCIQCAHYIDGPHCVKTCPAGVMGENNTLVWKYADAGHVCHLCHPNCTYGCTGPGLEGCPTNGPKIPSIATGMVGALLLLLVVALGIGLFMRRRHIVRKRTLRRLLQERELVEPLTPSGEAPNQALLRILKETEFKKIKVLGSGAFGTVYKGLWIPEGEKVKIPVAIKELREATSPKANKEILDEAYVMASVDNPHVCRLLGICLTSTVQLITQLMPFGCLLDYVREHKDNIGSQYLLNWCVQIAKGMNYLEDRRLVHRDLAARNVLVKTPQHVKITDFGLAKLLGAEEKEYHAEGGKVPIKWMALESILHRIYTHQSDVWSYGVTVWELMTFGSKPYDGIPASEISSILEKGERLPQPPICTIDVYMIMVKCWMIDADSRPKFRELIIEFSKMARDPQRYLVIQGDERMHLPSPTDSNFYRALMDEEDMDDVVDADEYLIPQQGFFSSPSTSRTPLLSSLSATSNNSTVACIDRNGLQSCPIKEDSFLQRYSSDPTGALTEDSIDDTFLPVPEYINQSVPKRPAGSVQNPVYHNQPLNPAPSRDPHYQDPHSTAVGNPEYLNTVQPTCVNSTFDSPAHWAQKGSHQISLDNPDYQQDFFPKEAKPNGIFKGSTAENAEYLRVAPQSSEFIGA

Structure (SMILES) | pIC50 ([1]; Homo sapiens, A-431, 72 h) | pIC50 [2] | pIC50 ([3]; Homo sapiens, SK-BR-3, 72 h) | pIC50 ([4]; Homo sapiens, 72 h) | pIC50 [6] | pIC50 ([5]; Homo sapiens, 96 h) | pIC50 ([1]; 72 hours) | pIC50 ([3]; 72 hours) | pIC50 ([4]; 72 hours) | pIC50 ([5]; 96 hours)
C=CC(=O)Nc1cc2c(Nc3cc(Cl)c(Cl)cc3F)ncnc2cc1OCCNC(=O)CN(C)C [Example 140, N-{4-(4,5-dichloro-2-fluoro-phenylamino)-7-[2-(2-dimethylamino-acetylamino)-ethoxy]-quinazolin-6-yl}-acrylamide] | 8.10 | 8.05 | 7.24 | 5.02 | 6.12 | 6.12 | – | – | – | –
C=CC(=O)Nc1cc2c(Nc3ccc(Cl)nc3)ncnc2cc1OCCNC(C)=O [Example 128, N-[7-(2-acetylamino-ethoxy)-4-(6-chloro-pyridin-3-ylamino)-quinazolin-6-yl]-acrylamide] | 7.17 | 7.19 | 7.02 | 5.00 | 6.08 | 6.02 | – | – | – | –
C=CC(=O)Nc1cc2c(Nc3cc(Cl)c(Cl)cc3F)ncnc2cc1OCCN(C)C [Example 136, N-[4-(4,5-dichloro-2-fluoro-phenylamino)-7-(2-dimethylamino-ethoxy)-quinazolin-6-yl]-acrylamide] | 6.46 | 6.49 | 6.74 | 5.53 | 6.07 | 6.03 | – | – | – | –
C=CC(=O)Nc1cc2c(Nc3ccc(Br)cc3F)ncnc2cc1OCCCCNC(C)=O [Example 20, N-[7-(4-acetylamino-butoxy)-4-(4-bromo-2-fluoro-phenylamino)-quinazolin-6-yl]-acrylamide] | 7.35 | 8.00 | 5.96 | 5.00 | 6.26 | 6.17 | – | – | – | –
C=CC(=O)Nc1cc2c(Nc3ccc(Br)cc3F)ncnc2cc1OCCNC(=O)NC(C)CC (stereo not drawn) [Example 38, N-{4-(4-bromo-2-fluoro-phenylamino)-7-[2-(3-sec-butyl-ureido)-ethoxy]-quinazolin-6-yl}-acrylamide] | 7.68 | 7.70 | 6.61 | 5.59 | 6.49 | 6.44 | – | – | – | –
C=CC(=O)Nc1cc2c(Nc3cc(Cl)c(Cl)cc3F)ncnc2cc1OCCNC(C)=O [Example 121, N-[7-(2-acetylamino-ethoxy)-4-(4,5-dichloro-2-fluoro-phenylamino)-quinazolin-6-yl]-acrylamide] | 8.15 | 8.30 | 7.66 | 5.00 | 6.82 | 6.42 | – | – | – | –
C=CC(=O)Nc1cc2c(Nc3ccc(Br)cc3F)ncnc2cc1OCC1CCN(C(=O)C(F)(F)F)CC1 [Example 2, N-{4-(4-bromo-2-fluoro-phenylamino)-7-[1-(2,2,2-trifluoro-acetyl)-piperidin-4-ylmethoxy]-quinazolin-6-yl}-acrylamide] | 7.09 | 7.33 | 6.62 | 5.34 | 6.60 | 7.02 | – | – | – | –
C=CC(=O)Nc1cc2c(Nc3ccc(Br)c(Cl)c3F)ncnc2cc1OC[C@@H](C)NC(=O)CN(C)C [Example 164, (R)—N-4-(4-bromo-3-chloro-2-fluoro-phenylamino)-7-[2-(2-dimethylamino-acetylamino)-propoxy]-quinazolin-6-yl-acrylamide] | – | 7.85 | – | – | 6.15 | – | 7.72 | 7.44 | 5.05 | 6.12
C=CC(=O)Nc1cc2c(Nc3ccc(Br)cc3F)ncnc2cc1OCCCNC(=O)CS(C)(=O)=O [Example 15, N-{4-(4-bromo-2-fluoro-phenylamino)-7-[3-(2-methanesulfonyl-acetylamino)-propoxy]-quinazolin-6-yl}-acrylamide] | 6.93 | 7.17 | 6.13 | 5.02 | 6.48 | 6.82 | – | – | – | –
C=CC(=O)Nc1cc2c(Nc3ccc(Br)cc3F)ncnc2cc1OCCNC(=O)NCCC [Example 34, N-{4-(4-bromo-2-fluoro-phenylamino)-7-[2-(3-propyl-ureido)-ethoxy]-quinazolin-6-yl}-acrylamide] | 7.46 | 7.59 | 7.17 | 5.59 | 6.34 | 6.17 | – | – | – | –

Continued, in another order:

pIC50 ([1]; Homo sapiens, A-431, 72 h) | pIC50 [2] | pIC50 ([3]; Homo sapiens, SK-BR-3, 72 h) | pIC50 ([4]; Homo sapiens, 72 h) | pIC50 [6] | Structure (SMILES) | pIC50 ([5]; Homo sapiens, 96 h) | pIC50 ([1]; 72 hours) | pIC50 ([3]; 72 hours) | pIC50 ([4]; 72 hours) | pIC50 ([5]; 96 hours)
7.46 | 7.59 | 7.17 | 5.04 | 6.89 | C=CC(=O)Nc1cc2c(Nc3ccc(Br)c(Cl)c3F)ncnc2cc1OCCNC(=O)NCCC [Example 169, N-{4-(4-bromo-3-chloro-2-fluoro-phenylamino)-7-[2-(3-propyl-ureido)-ethoxy]-quinazolin-6-yl}-acrylamide] | 6.63 | – | – | – | –
6.85 | 6.80 | 6.70 | 5.00 | 7.08 | C=CC(=O)Nc1cc2c(Nc3ccc(Br)cc3F)ncnc2cc1OCCNC(=O)OC [Example 63, {2-[6-acryloylamino-4-(4-bromo-2-fluoro-phenylamino)-quinazolin-7-yloxy]-ethyl}-carbamic acid methylester] | 6.99 | – | – | – | –
7.77 | 7.82 | 7.19 | 5.63 | 6.38 | C=CC(=O)Nc1cc2c(Nc3cc(Cl)c(Br)cc3F)ncnc2cc1OCCNC(C)=O [Example 133, N-[7-(2-acetylamino-ethoxy)-4-(4-bromo-5-chloro-2-fluoro-phenylamino)-quinazolin-6-yl]-acrylamide] | 6.37 | – | – | – | –
7.14 | 7.15 | 6.44 | 5.34 | 6.64 | C=CC(=O)Nc1cc2c(Nc3ccc(Br)cc3F)ncnc2cc1OCCNC(=O)CCOC [Example 64, N-{4-(4-bromo-2-fluoro-phenylamino)-7-[2-(3-methoxy-propionylamino)-ethoxy]-quinazolin-6-yl}-acrylamide] | 6.53 | – | – | – | –
7.82 | 7.85 | 7.10 | 6.14 | 6.31 | C=CC(=O)Nc1cc2c(Nc3ccc(F)c(F)c3F)ncnc2cc1OCCNC(C)=O [Example 118, N-[7-(2-acetylamino-ethoxy)-4-(2,3,4-trifluoro-phenylamino)-quinazolin-6-yl]-acrylamide] | 6.17 | – | – | – | –
7.43 | 7.44 | 7.08 | 5.00 | 6.45 | C=CC(=O)Nc1cc2c(Nc3ccc(Br)cc3F)ncnc2cc1OCCNC(=O)C=CCC [Example 52, pent-2-enoic acid {2-[6-acryloylamino-4-(4-bromo-2-fluoro-phenylamino)-quinazolin-7-yloxy]-ethyl}-amide] | 6.46 | – | – | – | –
7.01 | 7.23 | 7.24 | 5.00 | 6.23 | C=CC(=O)Nc1cc2c(Nc3ccc(Br)cc3F)ncnc2cc1OCCCNC(=O)C(F)(F)F [Example 14, N-{4-(4-bromo-2-fluoro-phenylamino)-7-[3-(2,2,2-trifluoro-acetylamino)-propoxy]-quinazolin-6-yl}-acrylamide] | 6.54 | – | – | – | –
7.47 | 7.59 | 7.15 | 5.00 | 7.03 | C=CC(=O)Nc1cc2c(Nc3ccc(Br)cc3F)ncnc2cc1OCC(C)NC(=O)CC (stereo not drawn) [Example 84, N-[4-(4-bromo-2-fluoro-phenylamino)-7-(2-propionylamino-propoxy)-quinazolin-6-yl]-acrylamide] | 6.95 | – | – | – | –
7.35 | 8.30 | 7.04 | 5.01 | 6.28 | C=CC(=O)Nc1cc2c(Nc3ccc(Br)cc3F)ncnc2cc1OCCNC(=O)C(F)F [Example 22, N-{4-(4-bromo-2-fluoro-phenylamino)-7-[2-(2,2-difluoro-acetylamino)-ethoxy]-quinazolin-6-yl}-acrylamide] | 6.02 | – | – | – | –
6.90 | 6.99 | 5.27 | 5.00 | 7.08 | C=CC(=O)Nc1cc2c(Nc3ccc(Br)cc3F)ncnc2cc1OCCNC(=O)C(=O)O [Example 72, {2-[6-acryloylamino-4-(4-bromo-2-fluoro-phenylamino)-quinazolin-7-yloxy]-ethyl}-oxalamic acid] | 6.97 | – | – | – | –
7.24 | 7.33 | 6.36 | 6.14 | 6.89 | C=CC(=O)Nc1cc2c(Nc3ccc(Br)cc3F)ncnc2cc1OCCNC(=O)c1cccs1 [Example 92, thiophene-2-carboxylic acid {2-[6-acryloylamino-4-(4-bromo-2-fluoro-phenylamino)-quinazolin-7-yloxy]-ethyl}-amide] | 6.59 | – | – | – | –
7.74 | 7.89 | 7.21 | 5.02 | 6.76 | C=CC(=O)Nc1cc2c(Nc3cc(Cl)c(Br)cc3F)ncnc2cc1OCCNC(=O)CC [Example 134, N-[4-(4-bromo-5-chloro-2-fluoro-phenylamino)-7-(2-propionylamino-ethoxy)-quinazolin-6-yl]-acrylamide] | 5.97 | – | – | – | –
